From patent US20110098177A1, “METHODS AND COMPOSITIONS OF PLANT MICRONUTRIENTS” (NOVUS INTERNATIONAL INC., priority 2006, published 2011)

What was measured:
Assay type in all cases: in vivo
Conditions in all cases: in vivo
Tygress tomato plants [1] = assay: Marketable yield, open-field tomato (Examples 7-10)
Protocol: (§1) The following experiments were performed in open-field plots during the spring of 2008 at GCREC, Balm, University of Florida. Four products delivering Zn (BIOX-Z), Mn (BIOX-M), Cu (BIOX-Cu), and Fe (BIOX-Fe) were compared to other micronutrient supplement formulations in tomato and bell pepper plants.
(§2) The plot sizes for the tomato plants were 30-ft plots (15 plants per plot) and 15-ft plots were used for the bell pepper plants (30 plants per plot). Crop set-up, procedures and variables were as follows.
(§3) Transplants of ‘Tygress’ tomato plants and ‘Patriot’ bell pepper plants in the 4-true leaf stage (about 6 inches tall) were planted in raised beds in open-field plots. The cross-section of each raised bed was 28 inches wide at the top, 32 inches wide at the base, and 8 inches tall. Irrigation and non-micronutrient fertilizer were provided daily through two drip lines per bed (0.45 gal/100 ft bed/min) at recommended rates for tomato and bell pepper production in Florida. […] The height of the plants for each of the treatment groups was measured at 3 weeks after transplantation (WAT), just prior to treatment with the experimental foliar fertilizers.
(§4) All foliar fertilizers except BIOX-CM were applied to the various treatment groups at 3 weeks after transplantation (WAT) and again at 5 WAT. The BIOX-CM treatment was applied at 4 and 5 WAT. The working water volume was 60 gal/acre and a non-ionic surfactant (Ad-Spray 80) was added in the amount of 2 pints/100 gal water. All plots were sprayed with sprayers pressurized at 25 psi and the canopies of both crops were covered with the micronutrient solutions. Treated plots were isolated during foliar fertilizer application to avoid the cross-contamination of other treatments on adjoining plots.
(§5) Leaf samples were collected from the most recent mature leaves from each plant at 6 WAT (2 weeks after initial treatment). Foliar tissue analysis was performed by a commercial laboratory to determine the concentration of N, P, K, Mg, Ca, B, Zn, Mn, Fe, and Cu. Tomato marketable fruit weights were collected at 10 and 12 WAT, and the fruits were graded according to USDA standards. Pepper marketable fruit weights were determined beginning at 5 WAT over 5 weekly harvests. Fruit mineral analysis (N, P, K, Mg, Ca, B, Zn, Mn, Fe, and Cu) was performed on samples from the tomato harvest.
(§6) The experimental design was a randomized complete block design with 5 replications for each treatment. All comparison data were analyzed using a general linear model and the means of each treatment were separated with a Fisher's protected LSD test at the 5% significance level.

[2] = test system: Patriot bell pepper plants; assay: Foliar nutrient concentration at 6 WAT, open-field bell pepper (Examples 7-10)
Protocol: as §1, §2, §3, §4, §5, §6

[3] = test system: Patriot bell pepper plants; assay: Marketable yield, open-field bell pepper (Examples 7-10)
Protocol: as §1, §2, §3, §4, §5, §6

Aristotle bell pepper = test system: Aristotle bell pepper
Protocol: (§7) The following experiments were performed in a green house during the fall of 2007 at GCREC, Balm, University of Florida. Fifteen products, at 3 different application rates were examined. The plot size was 2-gallon pots. Crop set-up, procedures and variables were as follows.
(§8) Transplants of ‘Florida-47’ tomato and ‘Aristotle’ bell pepper plants in the 4-true leaf stage (about 6 inches tall) were planted in 2-gal pots on Aug. 27, 2007. Pots were filled with a commercially available planting medium. This medium was selected based on the mineral composition of the products to be applied without providing significant nutritional inputs to the crops. Irrigation was provided with drip lines delivering between 0.50 and 0.33 gal/day/pot for tomato and bell pepper, respectively, and the crops were irrigated three times per day. No foliar pesticides were necessary.
(§9) There were four control treatments corresponding to each target micronutrient in which non-Fe, non-Mn, non-Zn or non-Cu pots received all other essential nutrients under non-limiting conditions.
(§10) Treatments were applied at three rates (high, medium and low) obtained from the estimated concentration of Zn, Fe, Cu, and Mn foliarly-applied in tomato and bell pepper in field situations (Table 1). Products were weighed and dissolved in 200 ml of deionized water with a non-ionic surfactant and applied to the newly-matured open leaves of each crop at 3 and 7 weeks after transplant (WAT). Treated pots were isolated during application to avoid cross-contamination of other treatments.
(§11) Medium nutrient concentration was determined 1 week before treatment. The mineral composition of the medium was 26.8 ppm NH4—N, 49 ppm NO3—N, 15.8 ppm P, 91.2 ppm K, 82.3 ppm Ca, 58.2 ppm Mg, 23.9 ppm Na, 125.6 ppm S, 1.33 ppm Fe, 0.39 ppm Mn, 0.35 ppm Zn, 0.05 pp, Cu, 0.04 ppm B, 0 ppm Mo, 0.73 ppm Al, and 12.1 ppm Si. The pH of the medium was 5.36 and the electric conductivity was 1.38 mS/cm. The foliar tissue analysis was performed at 6 WAT and the concentration of N, P, K, Mg, Ca, S, B, Zn, Mn, Fe, and Cu was determined by a commercial laboratory. Plant toxicity was determined at 4 WAT by using a 0-10 visual scale, where 0=no visible damage and 10=total plant death. Marketable fruit weight was collected 2 times in bell pepper and 4 times in tomato following USDA standards.
(§12) Data were analyzed using a general linear model, and means were separated using orthogonal contrasts at the 5% significance level.

Florida-47 tomato = test system: Florida-47 tomato
Protocol: as §7, §8, §9, §10, §11, §12

Tygress tomato plants [4] = assay: Nutrient concentration of tomato fruits at 10 WAT, open field (Examples 7-10)
Protocol: as §1, §2, §3, §4, §5, §6

Tygress tomato plants [5] = assay: Foliar nutrient concentration 2 weeks after treatment, greenhouse tomato (Examples 4-6)
Protocol: (§13) The following experiments were performed in a green house during the fall of 2008 and spring of 2009 at GCREC, Balm, University of Florida. Crop set-up, procedures and variables were as follows.
(§14) Transplants of Tygress' tomato plants were planted in 2-gallon pots filled with commercial planting medium with nutrient concentration of Fe, Zn, Mn, Cu being negligible and insufficient for crop growth. Irrigation and non-micronutrient fertilizer were provided daily through microsprinklers at recommended rates for tomato production in Florida. No pesticides were used. Treatments were as described in Tables 4, 5 and 6 below.
(§15) Treatments were applied at 5 WAT (weeks after transplanting) using a water volume of 200 mL/plant. A non-ionic surfactant was added. Foliar tissue analysis was performed at 3 and 7 WAT on the non-applied newest leaves. The concentrations of N, P, K, Mg, Ca, B, Zn, Mn, Fe, and Cu in the foliar tissue were determined from foliar analysis by a commercial laboratory at 2 weeks before treatment and again at 2 weeks after treatment.
(§16) Deionized water was used for foliar applications, and other nutrients were applied as appropriate under non-limiting conditions. Marketable fruit were collected three times during the growing season, starting at 10 WAT (5 weeks after the initial treatment). Tomato fruit was graded as extra-large, large and medium. Non-marketable fruit were harvested and number and weight recorded but not sized.
(§17) Experimental design was a randomized complete block design with 6 replications. Data were analyzed using a general linear model, and means were separated using an LSD test at the 5% significance level.

Tygress tomato plants [6] = assay: Yields of tomato fruits, greenhouse (Examples 4-6)
Protocol: as §13, §14, §15, §16, §17

Tygress tomato plants [7] = assay: Foliar nutrient concentration at 6 WAT, open-field tomato (Examples 7-10)
Outline: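 Open-field Florida trial, spring 2008: transplants at 4-true-leaf stage on drip-irrigated raised beds were foliar-sprayed at 3 and 5 WAT (BIOX-CM at 4 and 5 WAT) at 60 gal/acre with non-ionic surfactant. Most recent mature leaves were sampled at 6 WAT. Tomato fruit was USDA-graded and analysed for minerals.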

## O=S(=O)([O-])[O-].[Zn+2] [BIOX-INZ, zinc sulfate]
Tygress tomato plants [1]
  Marketable yield, Tomato: 15.6 ton/acre
[2]
  Foliar B concentration of bell pepper plants: 57 ppm
  Foliar Cu concentration of bell pepper plants: 385 ppm
  Foliar Fe concentration of bell pepper plants: 116 ppm
  Foliar K concentration of bell pepper plants: 3.2%
  Foliar Mg concentration of bell pepper plants: 0.53%
  Foliar Mn concentration of bell pepper plants: 303 ppm
  Foliar N concentration of bell pepper plants: 3.9%
  Foliar P concentration of bell pepper plants: 0.22%
  Foliar Zn concentration of bell pepper plants: 64 b ppm
[3]
  Marketable yield, Bell Pepper: 6.9 ton/acre
Aristotle bell pepper
  Pepper toxicity: 0
Florida-47 tomato
  Tomato toxicity: 0
Tygress tomato plants [4]
  B concentration of tomato fruits: 21 ppm
  Cu concentration of tomato fruits: 21 ppm
  Fe concentration of tomato fruits: 85 ppm
  K concentration of tomato fruits: 7.5%
  Mg concentration of tomato fruits: 0.34%
  Mn concentration of tomato fruits: 38 ppm
  N concentration of tomato fruits: 4.2%
  P concentration of tomato fruits: 0.59%
  Zn concentration of tomato fruits: 496 ppm
Tygress tomato plants [5]
  B concentration in tomato leaves: 24 ppm
  Cu concentration in tomato leaves: 5 ppm
  Fe concentration in tomato leaves: 97 ppm
  Foliar Zn concentration: 768 a ppm
  K concentration in tomato leaves: 3.5%
  Mg concentration in tomato leaves: 0.3%
  Mn concentration in tomato leaves: 55 ppm
  N concentration in tomato leaves: 3.6%
  P concentration in tomato leaves: 0.4%
Tygress tomato plants [6]
  Marketable yield: 3.7 a lb/plant
Tygress tomato plants [7]
  Foliar B concentration of tomato plants: 41 ppm
  Foliar Cu concentration of tomato plants: 358 ppm
  Foliar Fe concentration of tomato plants: 71 ppm
  Foliar K concentration of tomato plants: 5.7%
  Foliar Mg concentration of tomato plants: 0.58%
  Foliar Mn concentration of tomato plants: 231 ppm
  Foliar N concentration of tomato plants: 4.8%
  Foliar P concentration of tomato plants: 0.18%
  Foliar Zn concentration of tomato plants: 323 ab ppm
  Foliar Zn concentration of tomato plants, statement: highest foliar concentration of Zn
